Measurements taken from patent publication US9737516B2, “Bicyclic heterocycles as bet protein inhibitors” (Incyte Corporation, priority 2013, dated 2017).
Structures can show the parent of a compound that is named as a salt.

What was measured:
BRD4-BD1 = BRD4-BD1 (Homo sapiens (Human), UniProt O60885); test: BRD4 AlphaScreen assay (BRD4-BD1); type: binding; settings: H4Ac4 peptide, 3.8 nM BRD4-BD1, read-out: BRD4 BD-1 enzyme IC50
Method: (§1) BRD4-BD1 and BRD4-BD2 assays were conducted in white 384-well polystyrene plate in a final volume of 20 μL for BD1 and 40 μL for BD2. Inhibitors were first serially diluted in DMSO and added to the plate wells before the addition of other reaction components. The final concentration of DMSO in the assay was 1.25% (BD1) and 0.83% (BD2). The assays were carried out at room temperature for 75 min. in the assay buffer (50 mM HEPES, pH 7.4, 100 mM NaCl, 0.05% CHAPS, 0.01% BSA), containing 50 nM Biotin-labeled tetra-acetylated histone H4 peptide (H4Ac4), 3.8 nM (BRD4-BD1, BPS Bioscience #31040) or 20 nM (BRD4-BD2, BPS Bioscience #31041). The reaction followed by the addition of 20 μL of assay buffer supplemented with Streptavidin donor beads (PerkinElmer 6760002) and GSH Acceptor beads (PerkinElmer-AL109C) at 4 µg/mL under reduced light. After plate sealing, the plate was incubated in the dark at room temperature for 75 min. before reading on a PHERAstar FS plate reader (BMG Labtech). IC50 determination was performed by fitting the curve of percent control activity versus the log of the inhibitor concentration using the GraphPad Prism 5.0 software. IC50 data for the Examples is presented in Table 1 as determined by Assay A1.

BRD4-BD2 = BRD4-BD2 (Homo sapiens (Human), UniProt O60885); test: BRD4 AlphaScreen assay (BRD4-BD2); type: binding; settings: H4Ac4 peptide, 20 nM BRD4-BD2, read-out: BRD4 BD-2 enzyme IC50
Method: as §1

KMS.12.BM cells = test: KMS.12.BM cell viability assay (ATP quantitation, Cell Titer-GLO); type: cell-based; settings: Homo sapiens, 72 h, 3 days, concentration required for 50% cell death, read-out: KMS cellular IC50
Method: KMS.12.BM cell line (human myeloma) was purchased from JCRB (Osaka, Japan) and maintained in RPMI with 10% FBS culture medium. To measure the cytotoxic activity of the compounds through ATP quantitation, the KMS.12.BM cells are plated in the RPMI culture medium at 5000 cells/well/per 100 μL into a 96-well polystyrene clear black tissue culture plate (Greiner-bio-one through VWR, NJ), in the presence or absence of a concentration range of test compounds. After 3 days, […] Cell Titer-GLO Luminescent (Promega, Madison, Wis.) cell culture agent is added to each well for 10 minutes at room temperature to stabilize the luminescent signal. This determines the number of viable cells in culture based on quantitation of the ATP present, which signals the presence of metabolically active cells. Luminescence is measured with the Top Count 384 (Packard Bioscience through Perkin Elmer, Boston, Mass.). Compound inhibition is determined relative to cells cultured with no drug and the IC50 is reported as the compound concentration required for 50% cell death. IC50 data for the Examples is presented in Table 2 as determined by Assay B1.

C-myc in KMS.12.BM cells = test: KMS.12.BM C-myc ELISA assay; type: cell-based; settings: Homo sapiens, 2 hours
Method: KMS.12.BM cell line (human myeloma) was purchased from JCRB (Osaka, Japan) and maintained in RPMI with 10% FBS culture medium. To measure the C-myc inhibitory activity of the compounds, the KMS.12.BM cells are plated in the RPMI culture medium at 75000 cells/well/per 200 μL into a 96-well flat bottom polystyrene tissue culture plate (Corning through VWR, N.J.), in the presence or absence of a concentration range of test compounds. After 2 hours, cell are pelleted and lysed with Cell Extraction Buffer (BioSource, Carlsbad, Calif.) in the presence of protease inhibitors (Life Technologies, Grand Island, N.Y. and Sigma, St Louis, Mo.). Clarified lyses are tested in a C-myc commercial ELISA (Life Technologies, Grand Island, N.Y.). Compound inhibition is determined relative to cells cultured with no drug and the IC50 is reported as the compound concentration required for 50% C-myc inhibition. IC50 data for the Examples is presented in Table 3 as determined by Assay C1.

Structure (SMILES)	IC50 (BRD4-BD1)	IC50 (BRD4-BD2)	IC50 (KMS.12.BM cells)	IC50 (C-myc in KMS.12.BM cells)
Cn1cc(-c2cc3ncn(C)c3cc2OCC2CCC2)c2cc[nH]c2c1=O [Example 15, 4-[6-(Cyclobutylmethoxy)-1-methyl-1H-benzimidazol-5-yl]-6-methyl-1,6-dihydro-7H-pyrrolo[2,3-c]pyridin-7-one]	≤ 100 nM	≤ 100 nM	≤ 1000 nM	≤ 1000 nM
CC(C)n1cnc2cc(OCC3CCC3)c(-c3cn(C)c(=O)c4[nH]ccc34)cc21 [Example 18, 4-[5-(Cyclobutylmethoxy)-1-isopropyl-1H-benzimidazol-6-yl]-6-methyl-1,6-dihydro-7H-pyrrolo[2,3-c]pyridin-7-one]	≤ 100 nM	≤ 100 nM	≤ 1000 nM	≤ 1000 nM
Cn1cc(-c2cc3[nH]cnc3cc2Oc2ccc(F)cc2F)c2cn[nH]c2c1=O [Example 9, 4-[6-(2,4-Difluorophenoxy)-1H-benzimidazol-5-yl]-6-methyl-1,6-dihydro-7H-pyrazolo[3,4-c]pyridin-7-one trifluoroacetate]	≤ 100 nM	≤ 100 nM	≤ 1000 nM	≤ 1000 nM
CC(C)n1cnc2cc(-c3cn(C)c(=O)c4[nH]ccc34)c(OCC3CCC3)cc21 [Example 19, 4-[6-(cyclobutylmethoxy)-1-isopropyl-1H-benzimidazol-5-yl]-6-methyl-1,6-dihydro-7H-pyrrolo[2,3-c]pyridin-7-one]	≤ 100 nM	≤ 100 nM	≤ 1000 nM	≤ 1000 nM
Cn1cc(-c2cc3c(cc2OCC2CCC2)ncn3C)c2cc[nH]c2c1=O [Example 14, 4-[5-(Cyclobutylmethoxy)-1-methyl-1H-benzimidazol-6-yl]-6-methyl-1,6-dihydro-7H-pyrrolo[2,3-c]pyridin-7-one]	≤ 100 nM	≤ 100 nM	≤ 1000 nM	≤ 1000 nM
Cn1cc(-c2cc3[nH]c(=O)[nH]c3cc2Oc2ccc(F)cc2F)c2cc[nH]c2c1=O [Example 1, 5-(2,4-Difluorophenoxy)-6-(6-methyl-7-oxo-6,7-dihydro-1H-pyrrolo[2,3-c]pyridin-4-yl)-1,3-dihydro-2H-benzimidazol-2-one]	≤ 100 nM	≤ 100 nM	≤ 1000 nM	≤ 1000 nM
Cn1cc(-c2cc3[nH]cnc3cc2OCC2CCC2)c2cc[nH]c2c1=O [Example 11, 4-[5-(Cyclobutylmethoxy)-1H-benzimidazol-6-yl]-6-methyl-1,6-dihydro-7H-pyrrolo[2,3-c]pyridin-7-one]	≤ 100 nM	≤ 100 nM	≤ 1000 nM	≤ 1000 nM
Cn1cc(-c2cc3ncn(Cc4ccccc4)c3cc2OCC2CCC2)c2cc[nH]c2c1=O [Example 17, 4-[6-(Cyclobutylmethoxy)-1-benzyl-1H-benzimidazol-5-yl]-6-methyl-1,6-dihydro-7H-pyrrolo[2,3-c]pyridin-7-one]	≤ 100 nM	≤ 100 nM	≤ 1000 nM	≤ 1000 nM
Cn1cc(-c2cc3c(cc2OCC2CCC2)ncn3Cc2ccccc2)c2cc[nH]c2c1=O [Example 16, 4-[5-(Cyclobutylmethoxy)-1-benzyl-1H-benzimidazol-6-yl]-6-methyl-1,6-dihydro-7H-pyrrolo[2,3-c]pyridin-7-one]	100 to 1000 nM	≤ 100 nM		
Cn1cc(-c2cc3[nH]c(CCC(=O)O)nc3cc2OCC2CCC2)c2cc[nH]c2c1=O [Example 22, Ammonium 3-[5-(cyclobutylmethoxy)-6-(6-methyl-7-oxo-6,7-dihydro-1H-pyrrolo[2,3-c]pyridin-4-yl)-1H-benzimidazol-2-yl]propanoate]	≤ 100 nM	≤ 100 nM	1000 to 10000 nM	
Cn1cc(-c2cc3[nH]c(N4CCCCC4)nc3cc2OCC2CCC2)c2cc[nH]c2c1=O [Example 20, 4-[5-(Cyclobutylmethoxy)-2-piperidin-1-yl-1H-benzimidazol-6-yl]-6-methyl-1,6-dihydro-7H-pyrrolo[2,3-c]pyridin-7-one]	≤ 100 nM	≤ 100 nM	≤ 1000 nM	≤ 1000 nM
Cn1cc(-c2cc3[nH]nnc3cc2Oc2ccc(F)cc2F)c2cc[nH]c2c1=O [Example 8, 4-(5-(2,4-difluorophenoxy)-1H-benzo[d][1,2,3]triazol-6-yl)-6-methyl-1H-pyrrolo[2,3-c]pyridin-7(6H)-one]	≤ 100 nM	≤ 100 nM	≤ 1000 nM	≤ 1000 nM
Cn1cc(-c2cc3c(cc2Oc2ccc(F)cc2F)n(C)c(=O)n3C)c2cn[nH]c2c1=O [Example 10, 4-[6-(2,4-Difluorophenoxy)-1,3-dimethyl-2-oxo-2,3-dihydro-1H-benzimidazol-5-yl]-6-methyl-1,6-dihydro-7H-pyrazolo[3,4-c]pyridin-7-one]	≤ 100 nM	≤ 100 nM	≤ 1000 nM	≤ 1000 nM
Cn1cc(-c2cc3[nH]cnc3cc2Oc2ccc(F)cc2F)c2cc[nH]c2c1=O [Example 5, 4-[5-(2,4-Difluorophenoxy)-1H-benzimidazol-6-yl]-6-methyl-1,6-dihydro-7H-pyrrolo[2,3-c]pyridin-7-one trifluoroacetate]	≤ 100 nM	≤ 100 nM	≤ 1000 nM	≤ 1000 nM
Cc1nc2cc(-c3cn(C)c(=O)c4[nH]ccc34)c(Oc3ccc(F)cc3F)cc2n1C [Example 4, 4-[6-(2,4-Difluorophenoxy)-1,2-dimethyl-1H-benzimidazol-5-yl]-6-methyl-1,6-dihydro-7H-pyrrolo[2,3-c]pyridin-7-one]	≤ 100 nM	≤ 100 nM	≤ 1000 nM	≤ 1000 nM
Cn1cc(-c2cc3c(cc2Oc2ccc(F)cc2F)n(C)c(=O)n3C)c2cc[nH]c2c1=O [Example 7, 5-(2,4-Difluorophenoxy)-1,3-dimethyl-6-(6-methyl-7-oxo-6,7-dihydro-1H-pyrrolo[2,3-c]pyridin-4-yl)-1,3-dihydro-2H-benzimidazol-2-one]	100 to 1000 nM	≤ 100 nM	≤ 1000 nM	
Cn1cc(-c2cc3[nH]c(=O)n(C)c3cc2Oc2ccc(F)cc2F)c2cc[nH]c2c1=O [Example 2, 6-(2,4-Difluorophenoxy)-1-methyl-5-(6-methyl-7-oxo-6,7-dihydro-1H-pyrrolo[2,3-c]pyridin-4-yl)-1,3-dihydro-2H-benzimidazol-2-one]	≤ 100 nM	≤ 100 nM	≤ 1000 nM	≤ 1000 nM
CCn1cnc2cc(OCC3CCC3)c(-c3cn(C)c(=O)c4[nH]ccc34)cc21 [Example 12, 4-[5-(Cyclobutylmethoxy)-1-ethyl-1H-benzimidazol-6-yl]-6-methyl-1,6-dihydro-7H-pyrrolo[2,3-c]pyridin-7-one]	≤ 100 nM	≤ 100 nM	≤ 1000 nM	
Cc1nc2cc(Oc3ccc(F)cc3F)c(-c3cn(C)c(=O)c4[nH]ccc34)cc2[nH]1 [Example 6, 4-[5-(2,4-Difluorophenoxy)-2-methyl-1H-benzimidazol-6-yl]-6-methyl-1,6-dihydro-7H-pyrrolo[2,3-c]pyridin-7-one trifluoroacetate]	≤ 100 nM	≤ 100 nM	≤ 1000 nM	≤ 1000 nM
Cn1cc(-c2cc3[nH]c(C4CCCC4)nc3cc2OCC2CCC2)c2cc[nH]c2c1=O [Example 21, 4-[5-(Cyclobutylmethoxy)-2-cyclopentyl-1H-benzimidazol-6-yl]-6-methyl-1,6-dihydro-7H-pyrrolo[2,3-c]pyridin-7-one bis(trifluoroacetate)]	≤ 100 nM	≤ 100 nM	≤ 1000 nM	
